These results are taken from US6613553B1, “Enoyl reductases and methods of use thereof” (priority 2000, dated 2003).

Molecules are shown by their SMILES. ≈ marks a conversion by molar mass, not a printed value. Entries after “also recorded” stand apart in the source; their conditions may differ. Like-named read-outs stand apart in the source and are kept apart here.

Test [1] has as its system E. coli RJR108 (fabI[G93V]). The test can be described thus: triclosan MIC on LB agar plates. The test is classed as cell-based. The settings on record: Escherichia coli.
Another test has as its system E. coli expressing FabL. The settings on record: FabL cloned from B. subtilis (ygaA). An excerpt:
However, such limited structural information alone cannot allow the identification since the overall identity of SDRs are low and the family size is large.

The target in another test is T1, FabI[G93V] mutant (Escherichia coli, UniProt P0AEK4, G93V).
T1 sequence (P0AEK4 1-262 G93V): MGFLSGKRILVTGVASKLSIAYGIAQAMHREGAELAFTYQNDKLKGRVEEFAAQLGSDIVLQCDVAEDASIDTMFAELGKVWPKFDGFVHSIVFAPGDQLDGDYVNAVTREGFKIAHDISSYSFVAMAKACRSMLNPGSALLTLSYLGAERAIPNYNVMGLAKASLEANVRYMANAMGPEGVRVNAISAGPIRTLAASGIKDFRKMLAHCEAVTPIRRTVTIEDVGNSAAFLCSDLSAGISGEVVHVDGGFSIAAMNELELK
The settings on record: fails to form high-affinity FabI-NAD+-triclosan ternary complex; cited from earlier work.

The test system of test [2] is E. coli W3110/pBluescript. The test can be described thus: triclosan MIC on LB agar plates. The test is classed as cell-based. The settings on record: Escherichia coli; E. coli W3110/pBluescript (empty vector); no growth in at least three experiments.
For a further test, the system named is E. coli W3110/pfabI. In words: triclosan MIC on LB agar plates. It counts as cell-based. The settings on record: Escherichia coli; E. coli W3110/pfabI (His-tag E. coli FabI, multi-copy plasmid).
Another test concerns E. coli W3110/pfabK. The test can be described thus: triclosan MIC on LB agar plates. The test is classed as cell-based, Escherichia coli. The settings on record: for MIC: Escherichia coli. How it is done:
FabI is the only enoyl reductase in E. coli and strain RJH13 harbors a fabI(Ts) allele and fails to grow at 42° C. [Heath et al., J. Biol. Chem., 273:30316 (1998)]. […] The pfabK plasmid was then introduced into the wild-type E. coli strain W3110. […] J. Infect. Control, 24:209 (1996)].

The next test addresses FabK (Streptococcus pneumoniae, UniProt Q9FBC5). It counts as biochemical.
Another test concerns B. subtilis. The conditions noted are these: cited from earlier work.
For test [3], the target named is FabI protein from P. aeruginosa (Pseudomonas aeruginosa, UniProt Q9ZFE4). The settings on record: cited from earlier work.
Sequence of FabI protein from P. aeruginosa (Q9ZFE4 whole entry): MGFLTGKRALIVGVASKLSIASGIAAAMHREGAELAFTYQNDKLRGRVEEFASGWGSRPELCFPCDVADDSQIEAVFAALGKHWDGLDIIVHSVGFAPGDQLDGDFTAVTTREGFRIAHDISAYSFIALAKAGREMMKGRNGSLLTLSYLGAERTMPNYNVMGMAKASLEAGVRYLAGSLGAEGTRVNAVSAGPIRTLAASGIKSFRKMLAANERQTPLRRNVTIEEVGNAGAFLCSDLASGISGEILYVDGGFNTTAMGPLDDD
The next test concerns P. aeruginosa. The settings on record: contains both FabI and FabK; cited from earlier work.
In the next test the test system is S. pneumoniae R6. The test can be described thus: triclosan MIC on brain heart infusion plates. It counts as cell-based. The conditions noted are these: Streptococcus pneumoniae.

Sequence of FabK (Q9FBC5 entry or part of it): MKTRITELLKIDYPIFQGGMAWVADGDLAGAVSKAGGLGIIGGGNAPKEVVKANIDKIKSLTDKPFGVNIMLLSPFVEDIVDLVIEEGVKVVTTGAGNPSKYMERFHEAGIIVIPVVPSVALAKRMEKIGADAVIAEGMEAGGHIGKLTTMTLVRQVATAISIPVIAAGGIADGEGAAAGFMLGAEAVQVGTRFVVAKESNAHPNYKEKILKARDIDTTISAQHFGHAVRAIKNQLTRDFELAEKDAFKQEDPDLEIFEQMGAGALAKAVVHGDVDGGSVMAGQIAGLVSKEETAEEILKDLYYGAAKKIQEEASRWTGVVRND

Consider `Oc1cc(Cl)ccc1Oc1ccc(Cl)cc1Cl` [triclosan, 2,4,4′-Trichloro-2′-hydroxydiphenyl ether], for which the MIC is 16 µg/mL (≈ 55.3 µM) in test [1]; 0.25 µg/mL (≈ 0.863 µM) in test [2]; 2 µg/mL (≈ 6.91 µM) with E. coli W3110/pfabI; > 2000 µg/mL with E. coli W3110/pfabK (E. coli W3110/pfabK (His-tag S. pneumoniae FabK), read-out: MIC); > 2000 µg/mL with E. coli W3110/pfabK (pfabK plasmid in strain W3110, read-out: minimum inhibitory concentration (MIC)); “about 2 μg/ml” in the test on B. subtilis. Further, the MIC was ~2 µg/mL (≈ 6.91 µM) in the test with S. pneumoniae R6 (R6, S. pneumoniae) and 2 µg/mL (≈ 6.91 µM) against S. pneumoniae R6 (R6, S. pneumoniae R6, brain heart infusion plates). Also, the “triclosan resistance of E. coli expressing FabL” value in the test with E. coli expressing FabL was “complete triclosan resistance”. Also, at FabI[G93V] mutant, the “inhibition of FabI[G93V] mutant by triclosan” value is listed as “still inhibited”. For the same molecule, the “triclosan resistance of E. coli expressing fabK” value in the test on E. coli W3110/pfabK (E. coli with fabK expression) is “completely resistant; also recorded: complete triclosan resistance”. Also, on FabK, the “inhibition of FabK activity in the in vitro assay” value is “did not inhibit”. Besides, the “susceptibility of P. aeruginosa FabI to triclosan in vitro” value in test [3] is “highly susceptible”. Besides, in the test on P. aeruginosa, the “triclosan inhibition of P. aeruginosa” value is “completely refractory”.
